How the values were obtained:
Assay type in all cases: functional
SR = assay: Growth inhibition of human SR cells assessed as cell growth at 10^-6 M after 48 hrs by sulforhodamine B assay; conditions: read-out: Activity
MDA-MB-231 = assay: Growth inhibition of human MDA-MB-231 cells assessed as cell growth at 10^-7 M after 48 hrs by sulforhodamine B assay; conditions: MDA-MB-231, 48 h, read-out: Activity
MCF7 = assay: Growth inhibition of human MCF7 cells assessed as cell growth at 10^-5 M after 48 hrs by sulforhodamine B assay; conditions: MCF7, 48 h, read-out: Activity
HCT-116 = assay: Growth inhibition of human HCT116 cells assessed as cell growth at 10^-7 M after 48 hrs by sulforhodamine B assay; conditions: HCT-116, 48 h, read-out: Activity
HL-60(TB) = assay: Growth inhibition of human HL-60(TB) cells assessed as cell growth at 10^-5 M after 48 hrs by sulforhodamine B assay; conditions: HL-60, 48 h, read-out: Activity
MOLT-4 = assay: Growth inhibition of human MOLT4 cells assessed as cell growth at 10^-7 M after 48 hrs by sulforhodamine B assay; conditions: MOLT-4, 48 h, read-out: Activity
DU-145 = assay: Growth inhibition of human DU145 cells assessed as cell growth at 10^-7 M after 48 hrs by sulforhodamine B assay; conditions: DU-145, 48 h, read-out: Activity
IGROV-1 [1] = assay: Growth inhibition of human IGROV1 cells assessed as cell growth at 10^-7 M after 48 hrs by sulforhodamine B assay; conditions: IGROV-1, 48 h, read-out: Activity
SK-MEL-2 [2] = assay: Growth inhibition of human SK-MEL-2 cells assessed as cell growth at 10^-8 M after 48 hrs by sulforhodamine B assay; conditions: SK-MEL-2, 48 h, read-out: Activity
RPMI-8226 = assay: Growth inhibition of human RPMI8226 cells assessed as cell growth at 10^-4 M after 48 hrs by sulforhodamine B assay; conditions: RPMI-8226, 48 h, read-out: Activity
NCI-H322M [3] = assay: Growth inhibition of human NCI-H322M cells assessed as cell growth at 10^-6 M after 48 hrs by sulforhodamine B assay; conditions: read-out: Activity
[4] = Growth inhibition of human NCI-ADR-RES cells assessed as cell growth at 10^-7 M after 48 hrs by sulforhodamine B assay; conditions: read-out: Activity
NCI-H322M [5] = assay: Growth inhibition of human NCI-H322M cells assessed as cell growth at 10^-5 M after 48 hrs by sulforhodamine B assay; conditions: read-out: Activity
HOP-92 = assay: Growth inhibition of human HOP92 cells assessed as cell growth at 10^-4 M after 48 hrs by sulforhodamine B assay; conditions: HOP-92, 48 h, read-out: Activity
T47D = assay: Growth inhibition of human T47D cells assessed as cell growth at 10^-5 M after 48 hrs by sulforhodamine B assay; conditions: read-out: Activity
NCI-H23 = assay: Growth inhibition of human NCI-H23 cells assessed as cell growth at 10^-4 M after 48 hrs by sulforhodamine B assay; conditions: NCI-H23, 48 h, read-out: Activity
IGROV-1 [6] = assay: Growth inhibition of human IGROV1 cells assessed as cell growth at 10^-5 M after 48 hrs by sulforhodamine B assay; conditions: IGROV-1, 48 h, read-out: Activity
MDA-MB-468 = assay: Growth inhibition of human MDA-MB-468 cells assessed as cell growth at 10^-8 M after 48 hrs by sulforhodamine B assay; conditions: MDA-MB-468, 48 h, read-out: Activity
SF-539 = assay: Growth inhibition of human SF539 cells assessed as cell growth at 10^-8 M after 48 hrs by sulforhodamine B assay; conditions: SF-539, 48 h, read-out: Activity
UACC-257 = assay: Growth inhibition of human UACC257 cells assessed as cell growth at 10^-4 M after 48 hrs by sulforhodamine B assay; conditions: UACC-257, 48 h, read-out: Activity
NCI-H460 = assay: Growth inhibition of human NCI-H460 cells assessed as cell growth at 10^-5 M after 48 hrs by sulforhodamine B assay; conditions: NCI-H460, 48 h, read-out: Activity
[7] = Growth inhibition of human NCI-ADR-RES cells assessed as cell growth at 10^-6 M after 48 hrs by sulforhodamine B assay; conditions: read-out: Activity
[8] = Growth inhibition of human NCI-ADR-RES cells assessed as cell growth at 10^-5 M after 48 hrs by sulforhodamine B assay; conditions: read-out: Activity
SW-620 = assay: Growth inhibition of human SW620 cells assessed as cell growth at 10^-5 M after 48 hrs by sulforhodamine B assay; conditions: SW-620, 48 h, read-out: Activity
CAKI-1 = assay: Growth inhibition of human CAKI-1 cells assessed as cell growth at 10^-6 M after 48 hrs by sulforhodamine B assay; conditions: CAKI-1, 48 h, read-out: Activity
A498 = assay: Growth inhibition of human A498 cells assessed as cell growth at 10^-4 M after 48 hrs by sulforhodamine B assay; conditions: A498, 48 h, read-out: Activity
OVCAR-5 [9] = assay: Growth inhibition of human OVCAR5 cells assessed as cell growth at 10^-7 M after 48 hrs by sulforhodamine B assay; conditions: OVCAR-5, 48 h, read-out: Activity
SK-MEL-2 [10] = assay: Growth inhibition of human SK-MEL-2 cells assessed as cell growth at 10^-6 M after 48 hrs by sulforhodamine B assay; conditions: SK-MEL-2, 48 h, read-out: Activity
COLO 205 = assay: Growth inhibition of human COLO205 cells assessed as cell growth at 10^-5 M after 48 hrs by sulforhodamine B assay; conditions: COLO 205, 48 h, read-out: Activity
MDA-MB-435 = assay: Growth inhibition of human MDA-MB-435 cells assessed as cell growth at 10^-5 M after 48 hrs by sulforhodamine B assay; conditions: MDA-MB-435, 48 h, read-out: Activity
786-0 [11] = assay: Growth inhibition of human 786-0 cells assessed as cell growth at 10^-5 M after 48 hrs by sulforhodamine B assay; conditions: 786-0, 48 h, read-out: Activity
SK-MEL-5 = assay: Growth inhibition of human SK-MEL-5 cells assessed as cell growth at 10^-8 M after 48 hrs by sulforhodamine B assay; conditions: SK-MEL-5, 48 h, read-out: Activity
K562 = assay: Growth inhibition of human K562 cells assessed as cell growth at 10^-4 M after 48 hrs by sulforhodamine B assay; conditions: K562, 48 h, read-out: Activity
786-0 [12] = assay: Growth inhibition of human 786-0 cells assessed as cell growth at 10^-8 M after 48 hrs by sulforhodamine B assay; conditions: 786-0, 48 h, read-out: Activity
NCI-H322M [13] = assay: Growth inhibition of human NCI-H322M cells assessed as cell growth at 10^-8 M after 48 hrs by sulforhodamine B assay; conditions: read-out: Activity
SNB-19 = assay: Growth inhibition of human SNB19 cells assessed as cell growth at 10^-6 M after 48 hrs by sulforhodamine B assay; conditions: SNB-19, 48 h, read-out: Activity
OVCAR-5 [14] = assay: Growth inhibition of human OVCAR5 cells assessed as cell growth at 10^-4 M after 48 hrs by sulforhodamine B assay; conditions: OVCAR-5, 48 h, read-out: Activity

Compound	growth at 1 µM (SR) [%]	growth at 0.1 µM (MDA-MB-231) [%]	growth at 10 µM (MCF7) [%]	growth at 0.1 µM (HCT-116) [%]	growth at 10 µM (HL-60(TB)) [%]	growth at 0.1 µM (MOLT-4) [%]	growth at 0.1 µM (DU-145) [%]	growth at 0.1 µM (IGROV-1 [1]) [%]	growth at 0.01 µM (SK-MEL-2 [2]) [%]	growth at 100 µM (RPMI-8226) [%]	growth at 1 µM (NCI-H322M [3]) [%]	growth at 0.1 µM [4] [%]	growth at 10 µM (NCI-H322M [5]) [%]	growth at 100 µM (HOP-92) [%]	growth at 10 µM (T47D) [%]	growth at 100 µM (NCI-H23) [%]	growth at 10 µM (IGROV-1 [6]) [%]	growth at 0.01 µM (MDA-MB-468) [%]	growth at 0.01 µM (SF-539) [%]	growth at 100 µM (UACC-257) [%]	further results
COc1cc(-c2nn(-c3cccc(NC(=O)c4ccccc4)c3)cc2-c2ccncc2)ccc1Cl	7	101	10	95	13	99	100	91	93	21	78	92	36	-15	31	18	28	90	91	24	growth at 10 µM (NCI-H460): 7%; growth at 1 µM [7]: 28%; growth at 10 µM [8]: 5%; growth at 10 µM (SW-620): 23%; growth at 1 µM (CAKI-1): 52%; growth at 100 µM (A498): -7%; growth at 0.1 µM (OVCAR-5 [9]): 93%; growth at 1 µM (SK-MEL-2 [10]): 22%; growth at 10 µM (COLO 205): -31%; growth at 10 µM (MDA-MB-435): -48%; growth at 10 µM (786-0 [11]): 24%; growth at 0.01 µM (SK-MEL-5): 97%; growth at 100 µM (K562): 11%; growth at 0.01 µM (786-0 [12]): 93%; growth at 0.01 µM (NCI-H322M [13]): 98%; growth at 1 µM (SNB-19): 47%; growth at 100 µM (OVCAR-5 [14]): 8%
COc1cc(-c2nn(-c3cccc(NC(=O)c4ccc(N5CCOCC5)c(C(F)(F)F)c4)c3)cc2-c2ccncc2)ccc1Cl	8	79	8	75	2	105	98	81	111	6	36	72	26	-30	19	-9	-7	95	93	-31	growth at 10 µM (NCI-H460): 1%; growth at 1 µM [7]: 11%; growth at 10 µM [8]: 2%; growth at 10 µM (SW-620): 17%; growth at 1 µM (CAKI-1): 21%; growth at 100 µM (A498): -24%; growth at 0.1 µM (OVCAR-5 [9]): 93%; growth at 1 µM (SK-MEL-2 [10]): 24%; growth at 10 µM (COLO 205): -84%; growth at 10 µM (MDA-MB-435): -36%; growth at 10 µM (786-0 [11]): -14%; growth at 0.01 µM (SK-MEL-5): 95%; growth at 100 µM (K562): 3%; growth at 0.01 µM (786-0 [12]): 98%; growth at 0.01 µM (NCI-H322M [13]): 103%; growth at 1 µM (SNB-19): 38%; growth at 100 µM (OVCAR-5 [14]): 2%

Source: ChEMBL document CHEMBL2440076, “New triarylpyrazoles as broad-spectrum anticancer agents: design, synthesis, and biological evaluation” (Eur J Med Chem, 2013)
